Experiments:
HUVECs = assay: Cell survival assay (CCK-8) in HUVECs; format: cell-based, human
TNF-α, IL-6, IL-1β = assay: Cytokine ELISA in serum and organs of LPS-induced septic mice; format: in vivo, mouse; conditions: 40 mg kg−1, 30 min after LPS 20 mg kg−1 i.p.; 3 h after LPS; vs LPS group
Method: For LPS‐induced sepsis model experiments, twenty male C57BL/6J mice were randomly divided into four groups (n = 5 in each group). Mice in group 1 were injected with 0.9% NaCl, while mice in groups 2–4 were injected intraperitoneally with LPS (20 mg kg^−1). After 30 min, mice in group 3 were injected with 40 mg kg^−1 CV122 and mice in group 4 were injected with 40 mg kg^−1 Suramin. After 3 h, blood was taken and the lungs, liver, spleen, kidney heart, and brain were taken. For CLP experiments, the mice were euthanized 24 h after the establishment of the sepsis model. Blood samples were collected from the eyeballs of mice, the lungs were taken. These organs were ground at 0.1 g mL^−1 in PBS, centrifuged and the supernatant collected. Serum and organ tissue supernatants were used to detect cytokine levels using the mouse TNF‐α, IL‐6, IL‐1β ELISA MAXTM Deluxe Set.

LPS-induced septic mice = assay: LPS-induced sepsis mouse model, survival; format: in vivo; conditions: 40 mg kg−1 s.c. 30 min after LPS 40 mg kg−1 i.p.; 80 h or longer observation; LPS group 0%
Method: For LPS‐induced sepsis model experiments, 25 male C57BL/6J mice, 6–8 weeks old, weighing 20–25 g, were randomly divided into five groups (n = 5 in each group), and survival was examined. The abdominal cavity was injected with 40 mg kg^−1 LPS to induce sepsis. 30 min later, mice in group 1 were injected subcutaneously with 0.9% NaCl, mice in groups 2–4 were injected subcutaneously with CV122 (20 mg kg^−1), CV122 (30 mg kg^−1), and CV122 (40 mg kg^−1), respectively, and mice in group 5 were injected subcutaneously with Suramin (40 mg kg^−1). The status of the mice was observed and recorded every day.

Cc1ccc(C(=O)Nc2ccc(S(=O)(=O)O)c3cc(S(=O)(=O)O)cc(S(=O)(=O)O)c23)cc1NC(=O)c1cccc(NC(=O)Nc2cccc(C(=O)Nc3cc(C(=O)Nc4ccc(S(=O)(=O)O)c5cc(S(=O)(=O)O)cc(S(=O)(=O)O)c45)ccc3C)c2)c1 [Suramin, reference compound]
effect on survival of HUVECs (HUVECs; 100 µM, *p < 0.05): significant inhibitory effect | effect on survival of HUVECs (HUVECs; 200 µM, **p < 0.01): significant inhibitory effect | TNF-α, IL-6 and IL-1β levels in serum and lungs (TNF-α, IL-6, IL-1β): suppress the cytokine release but to a lesser extent | survival rate (LPS-induced septic mice): 60%
